Results from PubChem BioAssay AID2060903 (Molecular Pharmacology Branch, DTP, NCI, 2025).
Blank lines part the entries; values can stand above or below the compound they belong to.

Test system: 377384-186-R-J1-PDC complex spheroid viability
Assay: Anticancer human tumor 377384-186-R-J1-PDC patient-derived pancreatic carcinoma cell line growth inhibition [RAS]
Details: for IC50: curve of first compound; for viability, T/C: stronger effect = lower value
How it was run: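 Multi-cell-type spheroids: tumor cells plus HUVEC endothelial cells and mesenchymal stem cells. RAS-pathway inhibitors were combined with targeted agents, each dosed in half-log steps down from clinical Cmax, or from 10 microM when Cmax was unknown.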

[1] = second compound 0.00316 µM, first compound 0.000949 µM
[2] = second compound 0.00316 µM, first compound 0.003 µM
[3] = second compound 0.00316 µM, first compound 0.00949 µM
[4] = second compound 0.00316 µM, first compound 0.03 µM
[5] = second compound 0.00316 µM, first compound 0.0949 µM
[6] = second compound 0.00316 µM, first compound 0.3 µM
[7] = second compound 0.01 µM, first compound 0.000949 µM
[8] = second compound 0.01 µM, first compound 0.003 µM
[9] = second compound 0.01 µM, first compound 0.00949 µM
[10] = second compound 0.01 µM, first compound 0.03 µM
[11] = second compound 0.01 µM, first compound 0.0949 µM
[12] = second compound 0.01 µM, first compound 0.3 µM
[13] = second compound 0.0316 µM, first compound 0.000949 µM
[14] = second compound 0.0316 µM, first compound 0.003 µM
[15] = second compound 0.0316 µM, first compound 0.00949 µM
[16] = second compound 0.0316 µM, first compound 0.03 µM
[17] = second compound 0.0316 µM, first compound 0.0949 µM
[18] = second compound 0.0316 µM, first compound 0.3 µM
[19] = second compound 0.1 µM, first compound 0.000949 µM
[20] = second compound 0.1 µM, first compound 0.003 µM
[21] = second compound 0.1 µM, first compound 0.00949 µM
[22] = second compound 0.1 µM, first compound 0.03 µM
[23] = second compound 0.1 µM, first compound 0.0949 µM
[24] = second compound 0.1 µM, first compound 0.3 µM
[25] = second compound 0.316 µM, first compound 0.000949 µM
[26] = second compound 0.316 µM, first compound 0.003 µM
[27] = second compound 0.316 µM, first compound 0.00949 µM
[28] = second compound 0.316 µM, first compound 0.03 µM
[29] = second compound 0.316 µM, first compound 0.0949 µM
[30] = second compound 0.316 µM, first compound 0.3 µM
[31] = second compound 1 µM, first compound 0.000949 µM
[32] = second compound 1 µM, first compound 0.003 µM
[33] = second compound 1 µM, first compound 0.00949 µM
[34] = second compound 1 µM, first compound 0.03 µM
[35] = second compound 1 µM, first compound 0.0949 µM
[36] = second compound 1 µM, first compound 0.3 µM
[37] = second compound 0.000949 µM, first compound 0.00316 µM
[38] = second compound 0.000949 µM, first compound 0.01 µM
[39] = second compound 0.000949 µM, first compound 0.0316 µM
[40] = second compound 0.000949 µM, first compound 0.1 µM
[41] = second compound 0.000949 µM, first compound 0.316 µM
[42] = second compound 0.000949 µM, first compound 1 µM
[43] = second compound 0.003 µM, first compound 0.00316 µM
[44] = second compound 0.003 µM, first compound 0.01 µM
[45] = second compound 0.003 µM, first compound 0.0316 µM
[46] = second compound 0.003 µM, first compound 0.1 µM
[47] = second compound 0.003 µM, first compound 0.316 µM
[48] = second compound 0.003 µM, first compound 1 µM
[49] = second compound 0.00949 µM, first compound 0.00316 µM
[50] = second compound 0.00949 µM, first compound 0.01 µM
[51] = second compound 0.00949 µM, first compound 0.0316 µM
[52] = second compound 0.00949 µM, first compound 0.1 µM
[53] = second compound 0.00949 µM, first compound 0.316 µM
[54] = second compound 0.00949 µM, first compound 1 µM
[55] = second compound 0.03 µM, first compound 0.00316 µM
[56] = second compound 0.03 µM, first compound 0.01 µM
[57] = second compound 0.03 µM, first compound 0.0316 µM
[58] = second compound 0.03 µM, first compound 0.1 µM
[59] = second compound 0.03 µM, first compound 0.316 µM
[60] = second compound 0.03 µM, first compound 1 µM
[61] = second compound 0.0949 µM, first compound 0.00316 µM
[62] = second compound 0.0949 µM, first compound 0.01 µM
[63] = second compound 0.0949 µM, first compound 0.0316 µM
[64] = second compound 0.0949 µM, first compound 0.1 µM
[65] = second compound 0.0949 µM, first compound 0.316 µM
[66] = second compound 0.0949 µM, first compound 1 µM
[67] = second compound 0.3 µM, first compound 0.00316 µM
[68] = second compound 0.3 µM, first compound 0.01 µM
[69] = second compound 0.3 µM, first compound 0.0316 µM
[70] = second compound 0.3 µM, first compound 0.1 µM
[71] = second compound 0.3 µM, first compound 0.316 µM
[72] = second compound 0.3 µM, first compound 1 µM
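Note: spheroids exposed to compounds for seven days before readout.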

IC50 (second compound 0.00316 µM): 2.98 nM
IC50 (second compound 0.01 µM): 4.06 nM
IC50 (second compound 0.0316 µM): 4.22 nM
IC50 (second compound 0.1 µM): 2.65 nM
IC50 (second compound 0.316 µM): 3.18 nM
IC50 (second compound 1 µM): 3.33 nM
SMILES: CC1(C)CCC(Nc2ncc(C(F)(F)F)c(-c3c[nH]c4c(P(C)(C)=O)c(C#N)ccc34)n2)CN1 (stereo not drawn) + C=CC(=O)N1CCN(c2nc(OCC3CCCN3C)nc3c(F)c(-c4nc(N)cc(C)c4C(F)(F)F)c(Cl)cc23)C(C)C1
viability, T/C [1]: 83.3%
viability, T/C [2]: 49.5%
viability, T/C [3]: 27.8%
viability, T/C [4]: 15.9%
viability, T/C [5]: 14.4%
viability, T/C [6]: 13.2%
viability, T/C [7]: 89%
viability, T/C [8]: 57.6%
viability, T/C [9]: 28.6%
viability, T/C [10]: 17%
viability, T/C [11]: 13.9%
viability, T/C [12]: 14.7%
viability, T/C [13]: 79.1%
viability, T/C [14]: 60.1%
viability, T/C [15]: 26%
viability, T/C [16]: 18.8%
viability, T/C [17]: 14.8%
viability, T/C [18]: 15%
viability, T/C [19]: 74.6%
viability, T/C [20]: 46.9%
viability, T/C [21]: 27.7%
viability, T/C [22]: 17.5%
viability, T/C [23]: 14.5%
viability, T/C [24]: 12.5%
viability, T/C [25]: 76.1%
viability, T/C [26]: 51.3%
viability, T/C [27]: 26.7%
viability, T/C [28]: 16.5%
viability, T/C [29]: 13.6%
viability, T/C [30]: 13.2%
viability, T/C [31]: 78.7%
viability, T/C [32]: 52.6%
viability, T/C [33]: 25%
viability, T/C [34]: 17.4%
viability, T/C [35]: 16%
viability, T/C [36]: 12.5%

IC50 (second compound 0.00316 µM): 1.55 nM
IC50 (second compound 0.01 µM): 1.4 nM
IC50 (second compound 0.0316 µM): 1.41 nM
IC50 (second compound 0.1 µM): 1.24 nM
IC50 (second compound 0.316 µM): 1.38 nM
IC50 (second compound 1 µM): 1.18 nM
SMILES: CCc1c2c(nc3ccc(O)cc13)-c1cc3c(c(=O)n1C2)COC(=O)[C@]3(O)CC + C=CC(=O)N1CCN(c2nc(OCC3CCCN3C)nc3c(F)c(-c4nc(N)cc(C)c4C(F)(F)F)c(Cl)cc23)C(C)C1
viability, T/C [1]: 62.2%
viability, T/C [2]: 33.5%
viability, T/C [3]: 14.6%
viability, T/C [4]: 6.38%
viability, T/C [5]: 2.5%
viability, T/C [6]: 1.05%
viability, T/C [7]: 59%
viability, T/C [8]: 31.9%
viability, T/C [9]: 18.1%
viability, T/C [10]: 5.58%
viability, T/C [11]: 2.2%
viability, T/C [12]: 1.1%
viability, T/C [13]: 61%
viability, T/C [14]: 28.6%
viability, T/C [15]: 14%
viability, T/C [16]: 6.21%
viability, T/C [17]: 2.11%
viability, T/C [18]: 1.21%
viability, T/C [19]: 55.5%
viability, T/C [20]: 32.2%
viability, T/C [21]: 15.7%
viability, T/C [22]: 4.22%
viability, T/C [23]: 2.88%
viability, T/C [24]: 0.95%
viability, T/C [25]: 57.9%
viability, T/C [26]: 33.1%
viability, T/C [27]: 17.6%
viability, T/C [28]: 6.72%
viability, T/C [29]: 2.76%
viability, T/C [30]: 1%
viability, T/C [31]: 53.6%
viability, T/C [32]: 33.9%
viability, T/C [33]: 18.9%
viability, T/C [34]: 7.03%
viability, T/C [35]: 2.97%
viability, T/C [36]: 1.13%

IC50 (second compound 0.000949 µM): < 3.16 nM
IC50 (second compound 0.003 µM): < 3.16 nM
IC50 (second compound 0.00949 µM): < 3.16 nM
IC50 (second compound 0.03 µM): < 3.16 nM
IC50 (second compound 0.0949 µM): < 3.16 nM
IC50 (second compound 0.3 µM): < 3.16 nM
SMILES: C=CC(=O)Nc1cc(Nc2nccc(-c3cn(C)c4ccccc34)n2)c(OC)cc1N(C)CCN(C)C + CCn1c(-c2cc(N3CCN(C)CC3)cnc2C(C)OC)c2c3cc(ccc31)-c1csc(n1)CC(NC(=O)C1CC1C)C(=O)N1CCCC(N1)C(=O)OCC(C)(C)C2
viability, T/C [37]: 30%
viability, T/C [38]: 45%
viability, T/C [39]: 32.3%
viability, T/C [40]: 27.5%
viability, T/C [41]: 12.1%
viability, T/C [42]: 4.35%
viability, T/C [43]: 17.5%
viability, T/C [44]: 17.3%
viability, T/C [45]: 11.2%
viability, T/C [46]: 4.88%
viability, T/C [47]: 2.22%
viability, T/C [48]: 1.8%
viability, T/C [49]: 4.04%
viability, T/C [50]: 11%
viability, T/C [51]: 3.16%
viability, T/C [52]: 3.12%
viability, T/C [53]: 1.55%
viability, T/C [54]: 1.78%
viability, T/C [55]: 2.43%
viability, T/C [56]: 1.94%
viability, T/C [57]: 1.75%
viability, T/C [58]: 2.15%
viability, T/C [59]: 2.02%
viability, T/C [60]: 1.52%
viability, T/C [61]: 2.3%
viability, T/C [62]: 1.82%
viability, T/C [63]: 1.99%
viability, T/C [64]: 2.1%
viability, T/C [65]: 1.5%
viability, T/C [66]: 0.91%
viability, T/C [67]: 2.2%
viability, T/C [68]: 1.68%
viability, T/C [69]: 1.82%
viability, T/C [70]: 1.46%
viability, T/C [71]: 1.28%
viability, T/C [72]: 0.91%

IC50 (second compound 0.000949 µM): < 3.16 nM
IC50 (second compound 0.003 µM): < 3.16 nM
IC50 (second compound 0.00949 µM): < 3.16 nM
IC50 (second compound 0.03 µM): < 3.16 nM
IC50 (second compound 0.0949 µM): < 3.16 nM
IC50 (second compound 0.3 µM): < 3.16 nM
SMILES: O=C(c1ccc(F)c(F)c1Nc1ccc(I)cc1F)N1CC(O)([C@@H]2CCCCN2)C1 + CCn1c(-c2cc(N3CCN(C)CC3)cnc2C(C)OC)c2c3cc(ccc31)-c1csc(n1)CC(NC(=O)C1CC1C)C(=O)N1CCCC(N1)C(=O)OCC(C)(C)C2
viability, T/C [37]: 40.6%
viability, T/C [38]: 28.1%
viability, T/C [39]: 9.77%
viability, T/C [40]: 2.04%
viability, T/C [41]: 0.28%
viability, T/C [42]: 0.8%
viability, T/C [43]: 16.4%
viability, T/C [44]: 4.75%
viability, T/C [45]: 3.32%
viability, T/C [46]: 1.15%
viability, T/C [47]: 0.17%
viability, T/C [48]: 0.13%
viability, T/C [49]: 3.22%
viability, T/C [50]: 2.06%
viability, T/C [51]: 1.32%
viability, T/C [52]: 0.24%
viability, T/C [53]: 0.08%
viability, T/C [54]: 0.13%
viability, T/C [55]: 2.61%
viability, T/C [56]: 1.37%
viability, T/C [57]: 0.71%
viability, T/C [58]: 0.07%
viability, T/C [59]: 0.12%
viability, T/C [60]: 0.09%
viability, T/C [61]: 1.11%
viability, T/C [62]: 0.96%
viability, T/C [63]: 0.28%
viability, T/C [64]: 0.12%
viability, T/C [65]: 0.15%
viability, T/C [66]: 0.18%
viability, T/C [67]: 1.01%
viability, T/C [68]: 1.34%
viability, T/C [69]: 0.16%
viability, T/C [70]: 0.2%
viability, T/C [71]: 0.28%
viability, T/C [72]: 0.18%
